Test results taken from patent US12637476B2, “Substituted carbamate macrocyclic compounds and related methods of treatment” (Alkermes, Inc., priority 2021, dated 2026).

These compounds were tested against T1, human orexin-2 receptor (OX2R) (Homo sapiens, UniProt O43614) (assay: Human OX2R IP1 assay). Settings: T-Rex CHO cells stably overexpressing human OX2R, IP1 accumulation, 1 hr at 37 degrees C.
T1 construct: expressed in transfected cells; host or cells: T-Rex CHO cells, induced with doxycycline
T1 sequence (O43614 1-444): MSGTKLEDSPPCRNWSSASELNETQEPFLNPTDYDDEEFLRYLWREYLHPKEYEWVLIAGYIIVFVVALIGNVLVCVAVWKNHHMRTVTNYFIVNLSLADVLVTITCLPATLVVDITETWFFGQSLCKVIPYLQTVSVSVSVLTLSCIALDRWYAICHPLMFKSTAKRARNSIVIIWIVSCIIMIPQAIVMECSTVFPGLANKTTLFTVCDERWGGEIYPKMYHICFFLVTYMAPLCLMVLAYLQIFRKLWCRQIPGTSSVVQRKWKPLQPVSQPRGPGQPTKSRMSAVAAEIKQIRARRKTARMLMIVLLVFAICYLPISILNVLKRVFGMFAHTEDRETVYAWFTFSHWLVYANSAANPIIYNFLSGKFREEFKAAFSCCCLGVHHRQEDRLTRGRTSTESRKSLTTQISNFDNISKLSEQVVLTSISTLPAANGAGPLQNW
Type: cell-based
Protocol: T-Rex CHO cells stably overexpressing the human orexin-2 receptor (OX2R) were induced overnight with 1 μg/mL of doxycycline in a T225 flask. 24 hours post induction, cells were lifted with accutase and plated into a 384-well proxy plate at 30,000 cells/well. Cells were then treated with different test compounds in 1× stimulation buffer containing 10 mM Hepes, 1 mM CaCl2, 0.5 mM MgCl2, 4.2 mM KCl, 146 mM NaCl, 5.5 mM glucose, and 50 mM LiCl, pH 7.4, for 1 hr at 37 degrees C. Following incubation, the reaction was terminated by the addition of detection mix, which is composed of IP1-d2 and anti-IP1-cryptate diluted in lysis buffer as well as 1× stimulation buffer. The plates were allowed to incubate for 1 hour at room temperature and were then read in the EnVision® multimode plate reader, measuring inositol phosphate levels.
Cisbio IP1 is a cell-based functional assay quantifying the accumulation of inositol monophosphate (IP), a metabolite released as a result of orexin 2 receptor activation through the phospholipase C-Gq signaling pathway. This is a competitive immunoassay in which the IP1 produced by the cells upon receptor activation competes with the IP1 analog coupled to the d2 fluorophore (acceptor) for binding to an anti-IP1 monoclonal antibody labeled with Eu cryptate (donor). The measured HTRF-FRET based signal is inversely proportional to the IP1 concentration produced.
The EC50 values reported in Table 2 were obtained according to the human OX2R IP1 assay described above. Data are the mean EC50 values±S.E.M.
CCN1C(=O)OCC(=O)N2CCC[C@H](NS(C)(=O)=O)[C@@H]2CO[C@H]2CC[C@@H]1CC2 [Compound 1] gave an EC50 of 0.1 to 1 µM. With CN1C(=O)OCC(=O)N2CCC[C@H](NS(C)(=O)=O)[C@@H]2CO[C@H]2CC[C@@H]1CC2 [Compound 2] the EC50 was 0.1 to 1 µM. With CS(=O)(=O)N[C@H]1CCCN2C(=O)COC(=O)N(C3CC3)[C@H]3CC[C@H](CC3)OC[C@@H]12 [Compound 3] the EC50 was 0.1 to 1 µM. CS(=O)(=O)N[C@H]1CCCN2C(=O)COC(=O)N(CC3CC3)[C@H]3CC[C@H](CC3)OC[C@@H]12 [Compound 10] gave an EC50 of 0.1 to 1 µM. With CS(=O)(=O)N[C@H]1CCCN2C(=O)COC(=O)N(CC(F)(F)F)[C@H]3CC[C@H](CC3)OC[C@@H]12 [Compound 11] the EC50 was greater than 1 µM.
